Reference: patent US7064119B2, “Fused bicyclic pyrimidine derivatives” (Kyorin Pharmaceutical Co., Ltd., priority 2002, dated 2006)

Columns and labels:
NK1 receptor = molecular target: T1, NK1 receptor (Cavia porcellus, UniProt P30547); assay: Test for NK1 receptor antagonist: substance P concentration-response in isolated guinea pig ileum, Schild analysis; conditions: substance P-induced contraction, 10 min pretreatment, method of Schild
T1 construct: from tissue; host or cells: isolated guinea pig ileum
T1 sequence (P30547 whole entry): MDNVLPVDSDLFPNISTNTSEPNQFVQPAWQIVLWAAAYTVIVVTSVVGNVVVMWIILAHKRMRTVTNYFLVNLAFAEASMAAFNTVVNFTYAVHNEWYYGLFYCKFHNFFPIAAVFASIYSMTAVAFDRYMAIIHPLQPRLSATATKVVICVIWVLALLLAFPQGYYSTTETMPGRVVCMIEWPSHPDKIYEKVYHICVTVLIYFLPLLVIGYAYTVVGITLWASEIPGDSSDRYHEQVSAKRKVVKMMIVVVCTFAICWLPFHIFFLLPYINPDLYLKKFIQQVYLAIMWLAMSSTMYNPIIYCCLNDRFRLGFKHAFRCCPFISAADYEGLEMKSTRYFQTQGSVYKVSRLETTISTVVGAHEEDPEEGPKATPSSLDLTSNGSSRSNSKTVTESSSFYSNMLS
Protocol: (1) Test for NK1 Receptor Antagonist
The method used was according to the method proposed by S. Dion et al.(Dion et al., Life Sciences 41(1987): 2269), to which minor modifications were made.
Guinea pigs were stunned by a blow on the head and were exsanguinated from the carotid artery and ilea were isolated. The ileum was mounted in an organ bath containing Tyrode's solution which was maintained at 32° C. and gased with 95% O2 and 5% CO2. The ileum was subjected to a resting tension of 1-gram and allowed to equilibrate for 20 minutes before the experiment was started. As a control, a concentration-response curve for substance P in the absence of any of test compounds was used. The NK1 receptor antagonist activity of each test compound was determined by a concentration-response curve obtained by pretreating at least three concentrations of the test compound for 10 minutes and subsequently applying substance P in a cumulative manner. The Kb values were determined according to the method of Schild and the results are shown in Table 1 (Schild Brit. J. Pharmacol. 14(1959): 48).
The composition of the Tyrode's solution was as follows: NaCl=136.9, KCl=2.7, CaCl2·2H2O=2.5, MgCl2·6H2O=1.0, NaH2PO4·2H2O=0.4, NaHCO3=11.9, glucose=11.1 (mmol/L)

Guinea pigs = assay: Cystometry test on guinea pigs (spinal cord cut), effective bladder capacity; format: in vivo; conditions: guinea pig
Description: (2) Cystometry Test on Guinea Pigs
The method used was according to the method proposed by J S. Peterson et al. (Peterson J S. et al., J. Pharmacol. Methods 21(1989): 231), to which minor modifications were made.
Guinea pigs were anesthetized with halothane and the tenth thoracic spinal cord was cut in each animal. Subsequently, both ureters were ligated and were cut on the kidney-side. Polyethylene catheters were inserted into the bladder to provide an injection pathway for physiological saline and a pathway for the measurement of intravesical pressure. Each animal was restricted in a Ballman cage and was left for more than 2 hours. Subsequently, room-temperature saline was injected through the bladder catheter into the bladder at a rate of 6 mL/hr to conduct a cystometry test. Once the effective bladder capacity was stabilized, a test compound was intravenously administered into the jugular vein. The effective bladder capacity is defined as the volume of saline injected from one urination to the next. The effect of each test compound was determined as the increase in the average bladder volume, which was determined based on the average bladder volume measured 30 minutes prior to the administration of the test compound and the average bladder volume measured every 30 minutes after the administration of the test compound.

Kb (NK1 receptor) [nM] | Structure (SMILES) | Increase in bladder capacity (%) (Guinea pigs; dose 0.3 mg/kg i.v.) | Increase in bladder capacity (%) (Guinea pigs; dose 1 mg/kg i.v.) | Increase in bladder capacity (%) (Guinea pigs; dose 3 mg/kg i.v.)
0.148 | CC(=O)N1CCN(c2nc3c(c(-c4ccccc4C)n2)C(=O)N(Cc2cc(C(F)(F)F)cc(C(F)(F)F)c2)CCCN3)CC1 [Compound of Example 4, 2-(4-acetylpiperazine-1-yl)-6-[3,5-bis(trifluoromethyl)benzyl]-5,6,7,8,9,10-hexahydro-4-(2-methylphenyl)-5-oxopyrimido[4,5-b][1,5]diazocine] | 43.0 | – | –
0.324 | CC(=O)N1CCN(c2nc(-c3ccccc3C)c3c(n2)N(C)CCCN(Cc2cc(C(F)(F)F)cc(C(F)(F)F)c2)C3=O)CC1 [Compound of Example 20] | – | – | –
0.42 | Cc1ccccc1-c1nc(N2CCOCC2)nc2c1C(=O)N(Cc1cc(C(F)(F)F)cc(C(F)(F)F)c1)CCCN2C [Compound of Example 21, 6-[3,5-bis(trifluoromethyl)benzyl]-5,6,7,8,9,10-hexahydro-10-methyl-4-(2-methylphenyl)-2-(morpholine-4-yl)-5-oxopyrimido(4,5-b][1,5]diazocine] | – | – | –
0.0794 | CC(=O)N1CCN(c2nc(-c3ccccc3C)c3c(n2)N(C(C)=O)CCCN(Cc2cc(C(F)(F)F)cc(C(F)(F)F)c2)C3=O)CC1 [Compound of Example 22, 10-acetyl-2-(4-acetylpiperazine-1-yl)-6-[3,5-bis(trifluoromethyl)benzyl]-5,6,7,8,9,10-hexahydro-4-(2-methylphenyl)-5-oxopyrimido[4,5-b][1,5]diazocine] | – | – | –
0.169 | COc1ccccc1-c1nc(N2CCS(=O)(=O)CC2)nc2c1C(=O)N(Cc1cc(C(F)(F)F)cc(C(F)(F)F)c1)CCCN2 [Compound of Example 28, 6-[3,5-bis(trifluoromethyl)benzyl]-2-(1,1-dioxothiomorpholine-4-yl)-5,6,7,8,9,10-hexahydro-4-(2-methoxyphenyl)-5-oxopyrimido[4,5-b][1,5]diazocine] | – | – | –
0.269 | Cc1ccc(-c2c3n(c(=O)c4ncccc24)CC[C@@H](C)CN(Cc2cc(C(F)(F)F)cc(C(F)(F)F)c2)C3=O)cc1 [TAK-637] | 12.0 | 23.8 | 20.5
